Consider 9 compounds from ChEMBL document CHEMBL1151926, “Synthesis and SAR of C12-C13-oxazoline derivatives of epothilone A” (Bioorg Med Chem Lett, 2009).

The test system of one experiment is A549. Kind of experiment: Antiproliferative activity against human A549 cells after 72 hrs. The format is functional, cell-based. The settings on record: A549, 72 h.
Experiment [1] has as its system Tubulin (Sus scrofa). Kind of experiment: Induction of porcine brain tubulin polymerization at 2 uM relative to 25 uM epothilone B.
The next experiment deals with MCF7. Kind of experiment: Antiproliferative activity against human MCF7 cells after 72 hrs. It is filed as functional, cell-based. Particulars: MCF7, 72 h.
In experiment [2] the test system is Tubulin (Sus scrofa). Description: Induction of porcine brain tubulin polymerization at 5 uM relative to 25 uM epothilone B.
A short description of experiment [3]: Antiproliferative activity against human KB-3-1 cells after 72 hrs. It is filed as functional, cell-based. The settings on record: KB 3-1, 72 h.

Some results are limits rather than exact numbers.

Turning to `C/C(=C\c1csc(C)n1)[C@@H]1CC2O[C@@H]2CCC[C@H](C)[C@H](O)[C@@H](C)C(=O)C(C)(C)[C@@H](O)CC(=O)O1` (single isomer, unassigned) [EPOTHILONE A], the 50% inhibitory concentration (IC50) was found to be 2.2 nM in the experiment on A549 and 2.6 nM in the experiment on MCF7. In addition, the results for the Activity in the experiment with Tubulin (Sus scrofa) [1] and in the experiment with Tubulin (Sus scrofa) [2] were 83% and 89%, respectively.

Turning to `C/C(=C\c1csc(C)n1)[C@@H]1C[C@@H]2OC(c3ccc(C(C)(C)C)cc3)=N[C@H]2CCC[C@H](C)[C@H](O)[C@@H](C)C(=O)C(C)(C)[C@@H](O)CC(=O)O1`, the IC50 in the experiment with A549 and in the experiment on MCF7 was over 10000 nM each time. Besides, the results for the Activity with Tubulin (Sus scrofa) [1] and with Tubulin (Sus scrofa) [2] were 0% and 7%, respectively.

In the case of `C/C(=C\c1csc(C)n1)[C@@H]1C[C@@H]2OC(c3ccc(C(C)C)cc3)=N[C@H]2CCC[C@H](C)[C@H](O)[C@@H](C)C(=O)C(C)(C)[C@@H](O)CC(=O)O1`, the concentration for half-maximal inhibition (IC50) is 4870 nM with A549 and 5140 nM in the experiment with MCF7. The Activity was found to be 14% in the experiment with Tubulin (Sus scrofa) [1] and 15% in the experiment with Tubulin (Sus scrofa) [2].

For `C/C(=C\c1csc(C)n1)[C@@H]1C[C@@H]2OC(c3cccnc3)=N[C@H]2CCC[C@H](C)[C@H](O)[C@@H](C)C(=O)C(C)(C)[C@@H](O)CC(=O)O1`, the IC50 in the experiment with A549 worked out at 0.92 nM; in the experiment on MCF7, 1.3 nM. The Activity came to 78% in the experiment on Tubulin (Sus scrofa) [1] and 93% with Tubulin (Sus scrofa) [2].

`CCc1ccc(C2=N[C@H]3CCC[C@H](C)[C@H](O)[C@@H](C)C(=O)C(C)(C)[C@@H](O)CC(=O)O[C@H](/C(C)=C/c4csc(C)n4)C[C@@H]3O2)cc1`: the 50% inhibitory concentration (IC50) stood at 378 nM with A549 and 297 nM in the experiment with MCF7. Further, the values for the Activity in the experiment with Tubulin (Sus scrofa) [1] and in the experiment on Tubulin (Sus scrofa) [2] were 32% and 36%, respectively.

Turning to `CC1=N[C@H]2CCC[C@H](C)[C@H](O)[C@@H](C)C(=O)C(C)(C)[C@@H](O)CC(=O)O[C@H](/C(C)=C/c3csc(C)n3)C[C@@H]2O1`, the IC50 in experiment [3] is over 1000 nM.

In the case of `C/C(=C\c1csc(C)n1)[C@@H]1C[C@@H]2OC(c3ccccc3)=N[C@H]2CCC[C@H](C)[C@H](O)[C@@H](C)C(=O)C(C)(C)[C@@H](O)CC(=O)O1`, the IC50 in the experiment with A549 stood at 16.4 nM; in the experiment with MCF7 it was 19.2 nM. For the same compound, the Activity came out at 65% with Tubulin (Sus scrofa) [1] and 80% in the experiment with Tubulin (Sus scrofa) [2].

Turning to `C/C(=C\c1csc(C)n1)[C@@H]1C[C@@H]2OC(c3ccc(C)cc3)=N[C@H]2CCC[C@H](C)[C@H](O)[C@@H](C)C(=O)C(C)(C)[C@@H](O)CC(=O)O1`, the 50% inhibitory concentration (IC50) with A549 was determined as 2.9 nM; in the experiment with MCF7, 1.9 nM. Moreover, the values for the Activity in the experiment with Tubulin (Sus scrofa) [1] and in the experiment on Tubulin (Sus scrofa) [2] were 71% and 88%, respectively.

Compound `COC1=N[C@H]2CCC[C@H](C)[C@H](O)[C@@H](C)C(=O)C(C)(C)[C@@H](O)CC(=O)O[C@H](/C(C)=C/c3csc(C)n3)C[C@@H]2O1` came in with a half-inhibitory concentration (IC50) in experiment [3] of over 1000 nM.
